Data on seven compounds can be found in ChEMBL document CHEMBL1909046, “DrugMatrix in vitro pharmacology data”.

Molecules are shown by their SMILES.

Chain of Adenosine receptor A2a (P29274 whole entry): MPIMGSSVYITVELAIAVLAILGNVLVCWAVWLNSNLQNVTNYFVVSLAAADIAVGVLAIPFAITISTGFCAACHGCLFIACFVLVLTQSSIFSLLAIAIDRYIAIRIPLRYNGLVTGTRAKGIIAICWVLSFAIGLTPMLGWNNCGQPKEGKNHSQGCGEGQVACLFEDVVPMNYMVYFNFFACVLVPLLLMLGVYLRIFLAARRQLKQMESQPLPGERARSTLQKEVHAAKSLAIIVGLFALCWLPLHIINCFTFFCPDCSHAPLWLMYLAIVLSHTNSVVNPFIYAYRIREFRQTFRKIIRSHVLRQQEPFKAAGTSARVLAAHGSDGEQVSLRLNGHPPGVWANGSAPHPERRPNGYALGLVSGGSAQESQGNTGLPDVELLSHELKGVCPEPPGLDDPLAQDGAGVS

One experiment has as its target Adenosine receptor A2a (Homo sapiens, UniProt P29274). Put plainly: DRUGMATRIX: Adenosine A2A radioligand binding (ligand: […]). It is filed as cell membranes, HEK293, Membrane. The note with it: hek293; Not Active = under 50% inhibition at 10 µM.
In the case of `Nn1nnc2ccccc21`, the IC50 result is recorded as “Not Active”.
As for `CC[C@]1(O)CC[C@H]2[C@@H]3CCC4=CCCC[C@@H]4[C@H]3CC[C@@]21C`, the IC50 result is reported as “Not Active”.
For `N[C@@H](Cc1ccc(F)cc1)C(=O)O`, the IC50 result was “Not Active”.
For `CCOC(=O)[C@H](CCc1ccccc1)N[C@@H](C)C(=O)N1Cc2ccccc2C[C@H]1C(=O)O`, the IC50 entry is “Not Active”.
`O=C(c1ccccc1Cl)N1CCC(Cc2ccccc2)CC1`: the IC50 entry is recorded as “Not Active”.
On the same count and under the same terms, with `CCOC(=O)[C@H](CCc1ccccc1)N[C@@H](C)C(=O)N1CCC[C@H]1C(=O)O` the entry was “Not Active”; with `Clc1cc2c(cc1Cl)Oc1cc(Cl)c(Cl)cc1O2` [2,3,7,8-TETRACHLORODIBENZO-P-DIOXIN], “Not Active”.

The next experiment concerns the target T1, Alpha-1A adrenergic receptor (Rattus norvegicus, UniProt P43140).
T1 sequence (P43140 whole entry): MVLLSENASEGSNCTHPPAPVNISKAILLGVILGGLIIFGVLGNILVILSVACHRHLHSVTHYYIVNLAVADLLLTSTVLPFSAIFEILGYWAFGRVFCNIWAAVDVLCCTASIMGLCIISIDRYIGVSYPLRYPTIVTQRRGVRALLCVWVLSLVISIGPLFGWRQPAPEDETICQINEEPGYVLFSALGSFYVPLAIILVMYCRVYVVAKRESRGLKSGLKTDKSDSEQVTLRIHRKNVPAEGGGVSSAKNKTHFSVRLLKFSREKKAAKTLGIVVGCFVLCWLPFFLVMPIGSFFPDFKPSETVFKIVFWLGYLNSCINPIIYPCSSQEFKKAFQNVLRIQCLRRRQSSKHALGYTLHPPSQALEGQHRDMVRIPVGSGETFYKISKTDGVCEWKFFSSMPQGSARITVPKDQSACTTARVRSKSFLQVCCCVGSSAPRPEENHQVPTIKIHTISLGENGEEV
Put plainly: DRUGMATRIX: Alpha-1A adrenergic receptor radioligand binding (ligand: prazosin). The note with it: Not Active = under 50% inhibition at 10 µM. It counts as cell membranes, Wistar, Submaxillary gland, Membrane.
Regarding `Nn1nnc2ccccc21`, the IC50 entry was “Not Active”.
The same measure, in the same setting: the entry for `CC[C@]1(O)CC[C@H]2[C@@H]3CCC4=CCCC[C@@H]4[C@H]3CC[C@@]21C` is “Not Active”; for `N[C@@H](Cc1ccc(F)cc1)C(=O)O` it is “Not Active”.
Still for that read-out and setting: with `CCOC(=O)[C@H](CCc1ccccc1)N[C@@H](C)C(=O)N1Cc2ccccc2C[C@H]1C(=O)O` the entry was “Not Active”.
As for `O=C(c1ccccc1Cl)N1CCC(Cc2ccccc2)CC1`, the IC50 result is listed as “Not Active”.
Consider `CCOC(=O)[C@H](CCc1ccccc1)N[C@@H](C)C(=O)N1CCC[C@H]1C(=O)O`, for which the IC50 result was “Not Active”.
Still for that read-out and setting: the entry for `Clc1cc2c(cc1Cl)Oc1cc(Cl)c(Cl)cc1O2` [2,3,7,8-TETRACHLORODIBENZO-P-DIOXIN] is “Not Active”.

Test system in a further experiment: not listed separately
Put plainly: DRUGMATRIX: Calcium Channel Type L, Benzothiazepine radioligand binding (ligand: [3H] Diltiazem). The note with it: Not Active = under 50% inhibition at 10 µM. It counts as cell membranes, Rattus norvegicus, Wistar, Brain, Membrane.
Regarding `Nn1nnc2ccccc21`, the IC50 entry is “Not Active” and the Ki entry is on record as “Not Active”.
On to `CC[C@]1(O)CC[C@H]2[C@@H]3CCC4=CCCC[C@@H]4[C@H]3CC[C@@]21C`, for which the IC50 result is recorded as “Not Active” and the Ki entry is “Not Active”.
Turning to `N[C@@H](Cc1ccc(F)cc1)C(=O)O`, the IC50 entry is on record as “Not Active” and the Ki entry was “Not Active”.
For the compound `CCOC(=O)[C@H](CCc1ccccc1)N[C@@H](C)C(=O)N1Cc2ccccc2C[C@H]1C(=O)O`, the IC50 entry is recorded as “Not Active” and the Ki result was “Not Active”.
With `O=C(c1ccccc1Cl)N1CCC(Cc2ccccc2)CC1`, the IC50 result is “Not Active” and the Ki result is “Not Active”.
Regarding `CCOC(=O)[C@H](CCc1ccccc1)N[C@@H](C)C(=O)N1CCC[C@H]1C(=O)O`, the IC50 result is reported as “Not Active” and the Ki result was “Not Active”.
Turning to `Clc1cc2c(cc1Cl)Oc1cc(Cl)c(Cl)cc1O2` [2,3,7,8-TETRACHLORODIBENZO-P-DIOXIN], the IC50 entry is “Not Active” and the Ki result is recorded as “Not Active”.

Test system in a further experiment: not listed separately
Put plainly: DRUGMATRIX: Atrial Natriuretic Factor (ANF) radioligand binding (ligand: [125I] ANF (rat)). It is filed as cell membranes, Cavia porcellus, Dunkin-Hartley, Adrenal gland, Membrane. The note with it: Not Active = under 50% inhibition at 10 µM.
`Nn1nnc2ccccc21`: the IC50 entry is listed as “Not Active” and the Ki result is “Not Active”.
On to `CC[C@]1(O)CC[C@H]2[C@@H]3CCC4=CCCC[C@@H]4[C@H]3CC[C@@]21C`, for which the IC50 result is given as “Not Active” and the Ki entry is listed as “Not Active”.
Take `N[C@@H](Cc1ccc(F)cc1)C(=O)O`: the IC50 result is reported as “Not Active” and the Ki entry was “Not Active”.
`CCOC(=O)[C@H](CCc1ccccc1)N[C@@H](C)C(=O)N1Cc2ccccc2C[C@H]1C(=O)O`: the IC50 result is “Not Active” and the Ki result is recorded as “Not Active”.
Turning to `O=C(c1ccccc1Cl)N1CCC(Cc2ccccc2)CC1`, the IC50 entry is “Not Active” and the Ki entry was “Not Active”.
With `CCOC(=O)[C@H](CCc1ccccc1)N[C@@H](C)C(=O)N1CCC[C@H]1C(=O)O`, the IC50 entry is “Not Active” and the Ki result is given as “Not Active”.
Regarding `Clc1cc2c(cc1Cl)Oc1cc(Cl)c(Cl)cc1O2` [2,3,7,8-TETRACHLORODIBENZO-P-DIOXIN], the IC50 result is “Not Active” and the Ki entry is given as “Not Active”.

For the next experiment, the target named is T2, Interstitial collagenase (Homo sapiens, UniProt P03956).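 Further: MMP-1 enzyme inhibition assay using a peptide substrate; in other assays of this panel Not Active means under 50% inhibition at 10 µM.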
T2 sequence (P03956 whole entry): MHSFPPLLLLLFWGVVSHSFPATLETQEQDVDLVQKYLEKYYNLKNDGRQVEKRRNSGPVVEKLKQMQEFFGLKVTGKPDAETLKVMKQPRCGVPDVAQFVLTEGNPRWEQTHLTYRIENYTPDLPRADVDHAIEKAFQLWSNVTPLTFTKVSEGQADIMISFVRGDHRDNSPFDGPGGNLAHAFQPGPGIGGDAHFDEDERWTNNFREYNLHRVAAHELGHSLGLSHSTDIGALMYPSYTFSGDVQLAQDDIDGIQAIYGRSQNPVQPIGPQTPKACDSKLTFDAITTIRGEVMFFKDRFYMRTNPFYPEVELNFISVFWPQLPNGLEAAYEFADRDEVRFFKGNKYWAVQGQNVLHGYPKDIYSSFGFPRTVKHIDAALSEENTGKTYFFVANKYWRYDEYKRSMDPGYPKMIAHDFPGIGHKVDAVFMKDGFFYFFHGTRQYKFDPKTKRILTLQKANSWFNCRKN
It is filed as tissue-based, Rheumatoid synovial fibroblasts.
Details: not given
For `Nn1nnc2ccccc21`, the IC50 result is “Not Active”.
Regarding `CC[C@]1(O)CC[C@H]2[C@@H]3CCC4=CCCC[C@@H]4[C@H]3CC[C@@]21C`, the IC50 result is recorded as “Not Active”.
Consider `N[C@@H](Cc1ccc(F)cc1)C(=O)O`, for which the IC50 entry was “Not Active”.
Turning to `CCOC(=O)[C@H](CCc1ccccc1)N[C@@H](C)C(=O)N1Cc2ccccc2C[C@H]1C(=O)O`, the IC50 result is “Not Active”.
In the case of `O=C(c1ccccc1Cl)N1CCC(Cc2ccccc2)CC1`, the IC50 entry is reported as “Not Active”.
In the case of `CCOC(=O)[C@H](CCc1ccccc1)N[C@@H](C)C(=O)N1CCC[C@H]1C(=O)O`, the IC50 entry is on record as “Not Active”.
Same read-out and setting: with `Clc1cc2c(cc1Cl)Oc1cc(Cl)c(Cl)cc1O2` [2,3,7,8-TETRACHLORODIBENZO-P-DIOXIN] the entry was “Not Active”.

For a further experiment, the target named is T3, 3-hydroxy-3-methylglutaryl-coenzyme A reductase (Homo sapiens, UniProt P04035).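 Further: enzyme inhibition assay of HMG-CoA reductase using radiolabeled [14C]HMG-CoA as substrate; in other assays of this panel Not Active means under 50% inhibition at 10 µM.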
T3 sequence (P04035 whole entry): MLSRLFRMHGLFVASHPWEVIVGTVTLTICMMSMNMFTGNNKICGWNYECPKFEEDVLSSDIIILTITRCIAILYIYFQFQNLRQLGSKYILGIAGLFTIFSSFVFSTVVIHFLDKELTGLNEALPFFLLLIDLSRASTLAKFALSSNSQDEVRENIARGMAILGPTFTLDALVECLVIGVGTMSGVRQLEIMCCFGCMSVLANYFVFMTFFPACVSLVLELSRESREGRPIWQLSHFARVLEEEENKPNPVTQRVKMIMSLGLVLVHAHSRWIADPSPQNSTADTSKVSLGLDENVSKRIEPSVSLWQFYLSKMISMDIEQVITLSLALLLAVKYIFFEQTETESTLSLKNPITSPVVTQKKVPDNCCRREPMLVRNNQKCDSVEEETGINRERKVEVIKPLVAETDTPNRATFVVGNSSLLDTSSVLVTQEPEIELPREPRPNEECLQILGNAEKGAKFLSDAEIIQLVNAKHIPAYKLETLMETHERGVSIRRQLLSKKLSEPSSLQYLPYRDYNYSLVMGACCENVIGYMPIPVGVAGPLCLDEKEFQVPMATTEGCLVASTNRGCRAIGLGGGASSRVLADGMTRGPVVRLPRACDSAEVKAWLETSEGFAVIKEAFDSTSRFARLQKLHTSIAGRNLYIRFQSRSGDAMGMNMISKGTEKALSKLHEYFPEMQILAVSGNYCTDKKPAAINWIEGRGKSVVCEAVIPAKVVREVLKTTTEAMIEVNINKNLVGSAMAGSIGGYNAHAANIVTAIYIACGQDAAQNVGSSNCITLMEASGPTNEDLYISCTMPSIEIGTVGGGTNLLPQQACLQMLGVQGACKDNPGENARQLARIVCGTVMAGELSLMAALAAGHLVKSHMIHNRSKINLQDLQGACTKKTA
Also noted: species or system Escherichia coli.
Details: not given
Take `Nn1nnc2ccccc21`: the IC50 result is “Not Active”.
The same measure, in the same setting: the entry for `CC[C@]1(O)CC[C@H]2[C@@H]3CCC4=CCCC[C@@H]4[C@H]3CC[C@@]21C` is “Not Active”; for `N[C@@H](Cc1ccc(F)cc1)C(=O)O` it is “Not Active”.
On to `CCOC(=O)[C@H](CCc1ccccc1)N[C@@H](C)C(=O)N1Cc2ccccc2C[C@H]1C(=O)O`, for which the IC50 entry is given as “Not Active”.
As for `O=C(c1ccccc1Cl)N1CCC(Cc2ccccc2)CC1`, the IC50 result is on record as “Not Active”.
On the same count and under the same terms, the entry for `CCOC(=O)[C@H](CCc1ccccc1)N[C@@H](C)C(=O)N1CCC[C@H]1C(=O)O` is “Not Active”; for `Clc1cc2c(cc1Cl)Oc1cc(Cl)c(Cl)cc1O2` [2,3,7,8-TETRACHLORODIBENZO-P-DIOXIN] it is “Not Active”.

Test system in a further experiment: not listed separately
Put plainly: DRUGMATRIX: Interleukin IL-1 radioligand binding (ligand: [125I] interleukin 1beta). The following applies: nih3t3; Not Active = under 50% inhibition at 10 µM. It is filed as cell membranes, Membrane.
For `Nn1nnc2ccccc21`, the IC50 entry is “Not Active” and the Ki result is recorded as “Not Active”.
Turning to `CC[C@]1(O)CC[C@H]2[C@@H]3CCC4=CCCC[C@@H]4[C@H]3CC[C@@]21C`, the IC50 result is given as “Not Active” and the Ki result is listed as “Not Active”.
Regarding `N[C@@H](Cc1ccc(F)cc1)C(=O)O`, the IC50 entry is recorded as “Not Active” and the Ki result was “Not Active”.
For the compound `CCOC(=O)[C@H](CCc1ccccc1)N[C@@H](C)C(=O)N1Cc2ccccc2C[C@H]1C(=O)O`, the IC50 result is on record as “Not Active” and the Ki entry is “Not Active”.
On to `O=C(c1ccccc1Cl)N1CCC(Cc2ccccc2)CC1`, for which the IC50 result was “Not Active” and the Ki entry is “Not Active”.
For `CCOC(=O)[C@H](CCc1ccccc1)N[C@@H](C)C(=O)N1CCC[C@H]1C(=O)O`, the IC50 result is recorded as “Not Active” and the Ki result was “Not Active”.
Turning to `Clc1cc2c(cc1Cl)Oc1cc(Cl)c(Cl)cc1O2` [2,3,7,8-TETRACHLORODIBENZO-P-DIOXIN], the IC50 entry was “Not Active” and the Ki result is reported as “Not Active”.
